Test results reported in US10765670B2, “Use of anti-connexin agents for enhancing the therapeutic effect of acetylcholinesterase inhibitors” (COMMISSARIAT A L'ENERGIE ATOMIQUE ET AUX ENERGIES …, priority 2011, dated 2020).
Marks after values point to notes of the source that are not given here.

Key:
male C57bl/6 mice = assay: Electro-encephalographic recording of hippocampal theta activity in mice; format: in vivo; conditions: for EEG Relative power to vehicles (relative power of hippocampal theta rhythm): n=7
Protocol: Electrophysiological effects of donepezil were evaluated by analysis of hippocampal electroencephalographic activity (EEG) as described previously in WO2010/029131. Briefly, the assay is as follows:
Two groups of male C57bl/6 mice (seven mice from 4 to 5 month old and seven mice from 17 to 18 month old) were pre-implanted with bilateral hippocampal bipolar electrodes under isoflurane anaesthesia. A two-week period of recovery was realized before recordings.
Different intraperitoneal treatments were performed by circular combination of 7 mice per treatment (donepezil 0.1 and 0.3 mg/kg, meclofenamic 1 mg/kg, donepezil 0.1 mg/kg+MFA 1 mg/kg).
EEG measures were performed on different batches of awoke mice (previously implanted and tamed) by recordings two hours after injection. The spectral analysis is carried out by Fourier transform (FFT) and allows the calculation of the relative powers for each Hertz and each second. FFT data are then averaged minute by minute and reported to control solvent recording realized on the day before in strictly identical experimental conditions. The spectral powers of two hippocampal electrodes are then averaged between 3 and 12 Hertz and represented hourly.
At day 1, saline was administered intraperitoneally to “adult” or “elderly” mice (n=7), and θ-hippocampal activity was measured for two consecutive hours. On day 2, donepezil alone or in combination with MFA is injected, and θ-hippocampal activity is related to that measured on day 1.

[1] = test system: C57bl/6 male mice, 17-18-month old; assay: Behavioral test of working memory, T-maze spontaneous alternation (SA-task) in elderly mice; format: in vivo; conditions: for promnesiant effect (increase of total alternation, FIG. 2) / total alternation in T-maze (FIG. 2): elderly mice; for SA-task relative to vehicles (mean percentage of alternation relative to vehicles over the seven trials): 30 min before T-maze, 17-18-month old mice
Source text: The alternating sequential test is widely used to assess spatial working memory in mice (Beracochea D. J. and Jaffard R., Behav. Neurosci. 101 (1987) 187-97). Spontaneous alternation is the innate tendency of rodents to alternate their choices to enter into the compartments of arrival of a T-maze device, over successive trials. To alternate during a given trial N, the animal must remember the choice made selectively in test N−1, so the decline in alternating will reflect the phenomenon of oblivion. The response in alternating is performance measure. Sequential alternating assess more specifically the sensitivity to interference, a major factor in oblivion.
The experiment took place in a T-maze (50 cm×10 cm×25 cm). All the subjects (C57bl/6 male mice, 17-18-month old, n=9) were given 7 successive trials separated by a 90-s intertrial interval. To begin a trial, the mouse was placed in the start box for 90 s before the door to the stem was opened. When the subject entered one of the goal arms, the door to that arm was closed. The chosen arm and the time that elapsed between opening the door and the arrival to the end of the chosen arm (task achievement time) were registered. Following a 30-s confinement period in the chosen arm, the animal was removed and placed in the start box for a new trial. Between each test, the unit was cleaned with water and alcohol to avoid olfactory detection. An alternation response was considered each time the subject entered the arm opposite to the one visited on the immediately previous trial. Alternation rate was calculated taking into account the 6 successive trials, and expressed in percentage relative to the maximal alternation rate of 100% (obtained when the subject never returned into the same arm for two consecutive trials).
C57BL/6 mice of 17 to 18 months (“elderly” mice) were intraperitoneally injected with a solution of NaCl (vehicle), donepezil (DZP), meclofenamic acid (MFA) or a combination of these two latter compounds, 30 minutes before T-maze experiment.
Thirty minutes after treatment (NaCl, donepezil, MFA), “elderly” mice are placed in the T-maze device. The percentage of alternation was measured for 7 consecutive trials, 50% corresponding to a random alternation.

[2] = Wagner C. et al 2007; cited from earlier work
rodents = conditions: MFA 1 mg/kg, previously described; cited from earlier work

SMILES | effect on EEG (θ-hippocampal activity) (male C57bl/6 mice; MFA alone 1 mg/kg i.p.) | promnesiant effect (increase of total alternation, FIG. 2) ([1]; MFA alone 1 mg/kg i.p.) | alternation by blocks of two trials (FIG. 3) ([1]; MFA alone 1 mg/kg i.p., three blocks of trials) | dose at which the anti-inflammatory effect is observed in vivo [2] | effect on the electroencephalographic signal (rodents) | response of θ-hippocampal activity (FIG. 1) (male C57bl/6 mice; 4-5-month old mice, donepezil 0.1 mg/kg i.p.) | response of θ-hippocampal activity (FIG. 1) (male C57bl/6 mice; 4-5-month old mice, donepezil 0.3 mg/kg i.p.) | response of θ-hippocampal activity (FIG. 1) (male C57bl/6 mice; 17-18-month old mice, donepezil 0.3 mg/kg i.p., second hour of recording) | EEG Relative power to vehicles (relative power of hippocampal theta rhythm) (male C57bl/6 mice; donepezil 0.1 mg/kg intraperitoneal) | EEG Relative power to vehicles (relative power of hippocampal theta rhythm) (male C57bl/6 mice; donepezil 0.3 mg/kg intraperitoneal) | SA-task relative to vehicles (mean percentage of alternation relative to vehicles over the seven trials) ([1]; donepezil 0.1 mg/kg i.p.) | promnesiant effect (increase of total alternation, FIG. 2) ([1]; donepezil 0.1 mg/kg i.p.) | alternation by blocks of two trials (FIG. 3), memory interference ([1]; donepezil 0.1 mg/kg i.p., third block (trials 6 and 7)) | SA-task relative to vehicles (mean percentage of alternation relative to vehicles over the seven trials) ([1]; donepezil 0.3 mg/kg i.p., p<0.01) | promnesiant effect (increase of total alternation, FIG. 2) ([1]; donepezil 0.3 mg/kg i.p.) | promnesiant effect (increase of total alternation, FIG. 2) ([1]; donepezil 1 mg/kg i.p.) | total alternation in T-maze (FIG. 2) ([1]; donepezil alone 0.3 mg/kg i.p.) | total alternation in T-maze (FIG. 2) ([1]; donepezil alone 1 mg/kg i.p.)
Cc1ccc(Cl)c(Nc2ccccc2C(=O)O)c1Cl [MFA, Benzoic 2-[(2,6-di-chloro-3-phenyl)amino] acid] | no effect by its own | no promnesiant effect significant | no significant effect | approximately 5 mg/kg/day | not affecting the electroencephalographic signal |  |  |  |  |  |  |  |  |  |  |  |  | 
COc1cc2c(cc1OC)C(=O)C(CC1CCN(Cc3ccccc3)CC1)C2 (stereo not drawn) [donepezil, 2,3-dihydro-5,6-dimethoxy-2-[[1-(phenylmethyl)-4-piperidinyl]methyl]-1H-i-nden-1-one] |  |  |  |  |  | do not respond significantly | do not respond significantly | an effect | 1 | 1 | 35% | no significant promnesiant effect | partially counteract the interference phenomenon | 48%** | significant promnesiant effect | significant promnesiant effect | around 75% | around 75%
